Assay results published in EPA's ToxRefDB 2.

How the values were obtained:
rat [1] = details: Multigenerational reproductive toxicity study, long evans, Oral, Feed, dose end: 2 generation
rat [2] = details: Multigenerational reproductive toxicity study, wistar, Oral, Feed, dose end: 2 generation
rat [3] = details: Prenatal developmental toxicity study, sprague dawley, Oral, Gavage/Intubation, dose end: 15 GD, group: maternal
rat [4] = details: Multigenerational reproductive toxicity study, wistar, Oral, Feed, dose end: 2 generation; remark: listed apart in the source
dog = details: Chronic toxicity; beagle; Oral; Capsule; dose end: 52 week; group: systemic; systemic / in life observation / body weight / body weight gain
[5] = group: offspring, systemic / in life observation / body weight / offspring (pup) weight + developmental / offspring survival late / viability index / …
[6] = group: parental, systemic / in life observation / body weight / body weight + systemic / in life observation / body weight / body weight gain
[7] = group: offspring, systemic / in life observation / clinical signs / body cold to touch + systemic / in life observation / clinical signs / emaciation + …
[8] = group: parental, systemic / in life observation / body weight / body weight + systemic / in life observation / body weight / body weight gain + systemic / …
[9] = group: reproductive, reproductive / offspring survival early / litter size / litter size
[10] = systemic / in life observation / body weight / body weight gain + systemic / in life observation / food consumption / food consumption + …
[11] = group: offspring, systemic / in life observation / body weight / offspring (pup) weight
[12] = group: offspring, systemic / in life observation / body weight / offspring (pup) weight + developmental / offspring survival late / lactation index / …

## Cc1ccc(N(SC(F)(Cl)Cl)S(=O)(=O)N(C)C)cc1 [Tolylfluanid]
Rat [1]; group: offspring, systemic / in life observation / body weight / offspring (pup) weight + developmental / offspring survival late / [other] / [other]
  LOAEL: 375 mg/kg/day
Rat [1]; group: offspring, systemic / in life observation / body weight / offspring (pup) weight + developmental / offspring survival late / [other] / [other] + …
  LEL: 375 mg/kg/day
Rat [1]; [5]
  NEL: 75 mg/kg/day
  NOAEL: 75 mg/kg/day
Rat [1]; [6]
  LEL: 375 mg/kg/day
  LOAEL: 375 mg/kg/day
  NEL: 75 mg/kg/day
  NOAEL: 75 mg/kg/day
Rat [2]; [7]
  LEL: 57.5 mg/kg/day
  LOAEL: 57.5 mg/kg/day
  NEL: 7.9 mg/kg/day
  NOAEL: 7.9 mg/kg/day
Rat [2]; [8]
  LEL: 75.2 mg/kg/day
  LOAEL: 75.2 mg/kg/day
  NEL: 9.5 mg/kg/day
  NOAEL: 9.5 mg/kg/day
Rat [2]; [9]
  LEL: 70.4 mg/kg/day
  LOAEL: 70.4 mg/kg/day
  NEL: 9.1 mg/kg/day
  NOAEL: 9.1 mg/kg/day
Rat [3]; systemic / in life observation / body weight / body weight gain + systemic / in life observation / food consumption / food consumption
  LOAEL: 1000 mg/kg/day
Rat [3]; [10]
  LEL: 1000 mg/kg/day
  NEL: 300 mg/kg/day
  NOAEL: 300 mg/kg/day
Rat [4]; [11]
  LEL: 83.4 mg/kg/day
  LOAEL: 83.4 mg/kg/day
Rat [4]; [12]
  NEL: 20.1 mg/kg/day
  NOAEL: 20.1 mg/kg/day
Rat [4]; [6]
  LEL: 83.4 mg/kg/day
  LOAEL: 83.4 mg/kg/day
Rat [4]; [8]
  NEL: 20.1 mg/kg/day
  NOAEL: 20.1 mg/kg/day
Rat [4]; [9]
  LEL: 336 mg/kg/day
  LOAEL: > 336 mg/kg/day
  NEL: 83.4 mg/kg/day
  NOAEL: ≥ 336 mg/kg/day
dog
  LEL: 62.5 mg/kg/day
  LOAEL: 62.5 mg/kg/day
